Source: patent US11013235B2 (priority 2015, dated 2021)
Like-named read-outs stand apart in the source and are kept apart here.

Assays:
Type in all cases: in vivo
[1] = system: Rhizoctonia solani; assay: Control of Rhizoctonia solani disease in tomato (Rs-SI); conditions: 1 μM spraying every 24 hours for one week, water control 96
[2] = system: Botrytis cinerea; assay: Control of Botrytis cinerea disease in Arabidopsis (Bc-At); conditions: 1 μM spraying every 24 hours for one week, water control 8.7
Summary of the method: (§1)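 Lesion diameter was the measure for Botrytis infection, percentage of leaves showing symptoms for Alternaria, and mortality rate for Nocardia. Compounds at 1 μM were sprayed daily for a week onto already inoculated plants, in groups of fifty, alongside water-treated controls.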

[3] = system: Candidatus 'Liberibacter asiaticus'; conditions: spraying every 15 days, 12 months after treatment, Citrus sinensis with HLB
[4] = system: Pratylenchus coffeae; assay: Nematode control, nodules per plant: Pratylenchus coffeae; conditions: 1 μM foliar application every 5 days, evaluation 35 days after, control 42
Summary of the method: (§2)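 Each compound was dissolved in ethanol, then diluted with water to 1 μM. Only the leaves were sprayed, with applications repeated every 5 days on ten plants per treatment. After 35 days, nodules per plant were quantified.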

[5] = system: Botrytis cinerea; assay: Control of Botrytis cinerea disease in tobacco (Bc-Nt); conditions: 1 μM spraying every 24 hours for one week, water control 6.7
Summary of the method: as §1

[6] = system: Botrytis cinerea; assay: Control of Botrytis cinerea disease in tomato (Bc-SI); conditions: 1 μM spraying every 24 hours for one week, water control 7.4
Summary of the method: as §1

[7] = system: Radopholus similis; assay: Nematode control, nodules per plant: Radopholus similis; conditions: 1 μM foliar application every 5 days, evaluation 35 days after, control 45
Summary of the method: as §2

[8] = system: Phytophthora parasitica; assay: Control of Phytophthora parasitica disease in tobacco (Pp-Nt); conditions: 1 μM spraying every 24 hours for one week, water control 91
[9] = system: Alternaria solani; assay: Control of Alternaria solani disease in tomato (As-SI); conditions: 1 μM spraying every 24 hours for one week, water control 68
Summary of the method: as §1

[10] = system: Meloidogyne incognita; assay: Nematode control, nodules per plant: Meloidogyne incognita; conditions: 1 μM foliar application every 5 days, evaluation 35 days after, control 34
Summary of the method: as §2

[11] = system: Rhizoctonia solani; assay: Control of Rhizoctonia solani disease in tobacco (Rs-Nt); conditions: 1 μM spraying every 24 hours for one week, water control 87
[12] = system: Nocardia sp; assay: Control of Nocardia sp disease in tobacco (N-Nt); conditions: 1 μM spraying every 24 hours for one week, water control 58
Summary of the method: as §1

Compound	Rs-SI: percentage of mortality [1]	Bc-At: mean of the diameter of the lesion [2]	Titers of the bacterium ([3]; 0.001 μM)	Titers of the bacterium ([3]; 0.01 μM)	Titers of the bacterium ([3]; 1 μM)	Titers of the bacterium ([3]; 5 μM)	Titers of the bacterium ([3]; 10 μM)	Pc: number of nodules per plant [4]	Bc-Nt: mean of the diameter of the lesion [5]	Bc-SI: mean of the diameter of the lesion [6]	Rs: number of nodules per plant [7]	Pp-Nt: percentage of mortality [8]	As-SI: percentage of leaves with the disease symptoms [9]	Mi: number of nodules per plant [10]	Rs-Nt: percentage of mortality [11]	N-Nt: percentage of mortality [12]
CC(O)C(O)CN1CCC(Oc2ccc(C(=O)N3CCCC3)cc2)CC1 (stereo not drawn) [IVJ, 1-(4-{4-[(pyrrolidin-1-yl)carbonyl]phenoxy}piperidin-1-yl)butane-2,3-diol]	3%	1.1 mm	435 copies per reaction	7 copies per reaction	3 copies per reaction	45 copies per reaction	9547 copies per reaction	18	2.0 mm	1.6 mm	16	1%	1%	2	2%	1%
CN1CCN(c2ncc(C(=O)N3CC4CC(O)C(O)CC4C3)cn2)CC1 (stereo not drawn) [IIIA, 2-{[2-(4-methylpiperazin-1-yl)pyrimidin-5-yl]carbonyl}-octahydro-1H-isoindole-5,6-diol]	3%	2.4 mm	432 copies per reaction	0 copies per reaction	0 copies per reaction	43 copies per reaction	2365 copies per reaction	16	1.5 mm	0.8 mm	11	1%	1%	2	2%	1%
CNC(=O)c1ccc2c(c1)N(C)C(CC(=O)NC(CO)CO)CO2 (stereo not drawn) [VB, 3-{[(1,3-dihydroxypropan-2-yl)carbamoyl]methyl}-N,4-dimethyl-3,4-dihydro-2H-1,4-benzoxazine-6-carboxamide]	2%	0.7 mm	598 copies per reaction	9 copies per reaction	2 copies per reaction	98 copies per reaction	9854 copies per reaction	1	0.9 mm	1.2 mm	0	0%	8%	0	0%	1%
O=C(Cc1cc2c(oc1=O)C=CC1C(c3ccccc3)=COC21)NCC(O)CO (stereo not drawn) [IIB, N-(2,3-dihydroxypropyl)-2-{11-oxo-5-phenyl-3,10-dioxatricyclo[7.4.0.0^{2,6}]trideca-1(9),4,7,12-tetraen-12-yl}acetamide]	2%	1.5 mm	432 copies per reaction	17 copies per reaction	2 copies per reaction	43 copies per reaction	8654 copies per reaction	14	1.5 mm	2.5 mm	2	2%	2%	3	3%	1%
Cc1nc(N2CCNCC2)ncc1C(=O)N1CC2CC(O)C(O)CC2C1 (stereo not drawn) [IIIJ, 2-{[4-methyl-2-(piperazin-1-yl)pyrimidin-5-yl]carbonyl}-octahydro-1H-isoindole-5,6-diol]	2%	1.1 mm	578 copies per reaction	0 copies per reaction	7 copies per reaction	578 copies per reaction	7546 copies per reaction	2	2.0 mm	1.6 mm	12	1%	3%	4	4%	2%
O=C(Cc1cc2c(oc1=O)C=CC1C(c3ccc4ccccc4c3)=COC21)NCC(O)CO (stereo not drawn) [IIE, N-(2,3-dihydroxypropyl)-2-[5-(naphthalen-2-yl)-11-oxo-3,10-dioxatricyclo[7.4.0.0^{2,6}]trideca-1(9),4,7,12-tetraen-12-yl]acetamide]	0%	1.2 mm	985 copies per reaction	1 copies per reaction	5 copies per reaction	98 copies per reaction	2547 copies per reaction	0	0.3 mm	0.8 mm	0	0%	7%	0	0%	0%
Cc1coc2cc3oc(=O)c(CCC(=O)NCC(O)CO)c(C)c3cc12 (stereo not drawn) [IH, N-(2,3-dihydroxypropyl)-3-{4,6-dimethyl-2-oxo-2H-furo[3,2-g]chromen-3-yl}propanamide]	3%	1.1 mm	658 copies per reaction	8 copies per reaction	12 copies per reaction	68 copies per reaction	4569 copies per reaction	11	2.0 mm	1.6 mm	19	1%	1%	21	2%	1%
CN1c2cc(C(=O)NC3CCCCC3)ccc2OCC1CC(=O)NC(CO)CO (stereo not drawn) [VF, N-cyclohexyl-3-{[(1,3-dihydroxypropan-2-yl)carbamoyl]methyl}-4-methyl-3,4-dihydro-2H-1,4-benzoxazine-6-carboxamide]	3%	1.5 mm	985 copies per reaction	1 copies per reaction	0 copies per reaction	98 copies per reaction	2365 copies per reaction	1	1.5 mm	2.5 mm	1	1%	1%	2	2%	1%
CC(O)C(O)CN1CCC(Oc2ccc(C(=O)N3CCC(c4ccccc4)C3)cc2)CC1 (stereo not drawn) [IVD, 1-(4-{4-[(3-phenylpyrrolidin-1-yl)carbonyl]phenoxy}piperidin-1-yl)butane-2,3-diol]	2%	1.1 mm	587 copies per reaction	0 copies per reaction	0 copies per reaction	87 copies per reaction	2368 copies per reaction	15	2.0 mm	1.6 mm	2	2%	2%	3	3%	1%
